From patent publication US10285989B2, “Pyrimidinone amide compounds as PDE2 inhibitors” (Merck Sharp & Dohme Corp., priority 2015, dated 2019)

molecular target: human PDE2A1 (Homo sapiens (Human), UniProt O00408); experiment: PDE2 IMAP FP inhibition assay, human PDE2A1 (selectivity panel format); assay type: biochemical; details: Lab A; read-out: Human PDE2 Ki (nM) - Lab A
Procedure: Selectivity for PDE2, as compared to other PDE families, was assessed using the IMAP® technology. Human PDE10A2 enzyme was prepared from cytosolic fractions of transiently transfected HEK cells.
A Labcyte POD 810 (Labcyte, Sunnyvale, Calif.) was used to dispense 200 nL from each well of the titration plate to make eleven copies of the assay plate for each titration, one copy for each PDE enzyme. A solution of each enzyme (dilution from aliquots, sufficient to produce 20% substrate conversion) and a separate solution of FAM-labeled cAMP or FAM-labeled cGMP from Molecular Devices (Sunnyvale, Calif., product # R7506 or cGMP#R7508), at a final concentration of 50 nM were made in the assay buffer (10 mM Tris HCl, pH 7.2, 10 mM MgCl2, 0.05% NaN3 0.01% Tween-20, and 1 mM DTT). Note that the substrate for PDE2 is 50 nM FAM cAMP containing 1000 nM of cGMP. The enzyme and the substrate were then added to the assay plates in two consecutive additions of 10 μL and then shaken to mix. The reaction was allowed to proceed at room temperature for 60 minutes. A binding solution was then made from the kit components, comprised of 80% Solution A, 20% Solution B and binding reagent at a volume of 1/600 the total binding solution. The enzymatic reaction was stopped by addition of 60 μL of the binding solution to each well of the assay plate. The plates were sealed and shaken for 10 seconds. The plates were incubated at room temperature for one hour, then the parallel and perpendicular fluorescence was measured using a Tecan Genios Pro plate reader (Tecan, Switzerland). […] The intrinsic PDE2 inhibitory activity of a compound which may be used in accordance with the present invention may be determined by these assays. […]

human PDE2A1, sequence (O00408 other isoform, or with tags, fused parts or gaps): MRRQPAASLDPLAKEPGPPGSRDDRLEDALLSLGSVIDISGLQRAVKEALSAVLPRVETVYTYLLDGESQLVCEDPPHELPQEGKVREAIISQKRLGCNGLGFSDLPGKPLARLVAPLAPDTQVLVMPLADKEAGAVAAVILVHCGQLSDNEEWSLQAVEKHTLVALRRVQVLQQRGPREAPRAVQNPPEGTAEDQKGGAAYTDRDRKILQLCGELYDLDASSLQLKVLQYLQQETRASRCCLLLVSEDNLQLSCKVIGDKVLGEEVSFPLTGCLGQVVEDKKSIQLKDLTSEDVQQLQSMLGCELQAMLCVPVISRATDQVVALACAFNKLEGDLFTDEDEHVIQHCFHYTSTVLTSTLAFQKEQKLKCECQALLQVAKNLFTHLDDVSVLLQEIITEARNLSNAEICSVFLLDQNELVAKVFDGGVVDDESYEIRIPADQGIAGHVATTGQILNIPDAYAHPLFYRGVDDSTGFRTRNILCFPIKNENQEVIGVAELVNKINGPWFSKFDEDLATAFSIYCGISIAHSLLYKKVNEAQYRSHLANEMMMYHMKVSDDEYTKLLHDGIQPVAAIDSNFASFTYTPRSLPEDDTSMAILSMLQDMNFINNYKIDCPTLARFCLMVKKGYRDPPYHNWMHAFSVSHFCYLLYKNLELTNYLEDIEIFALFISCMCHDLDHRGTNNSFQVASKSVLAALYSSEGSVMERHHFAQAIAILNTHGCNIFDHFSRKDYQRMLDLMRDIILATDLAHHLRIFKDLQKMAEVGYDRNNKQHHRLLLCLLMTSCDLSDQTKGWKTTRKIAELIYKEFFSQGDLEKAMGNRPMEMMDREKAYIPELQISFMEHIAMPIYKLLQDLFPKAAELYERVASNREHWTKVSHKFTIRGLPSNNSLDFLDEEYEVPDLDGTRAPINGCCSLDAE

Row | Compound | Ki [nM]
1 | CC(C)[C@@H](NC(=O)c1cc(=O)[nH]c(N2CC[C@@H](O)C2)n1)c1ccc(OC(F)(F)F)c(F)c1 [Example 166, N-{(1R)-1-[3-fluoro-4-(trifluoromethoxy)phenyl]-2-methylpropyl}-2-[(3R)-3-hydroxypyrrolidin-1-yl]-6-oxo-1,6-dihydropyrimidine-4-carboxamide] | 1.3

same assay, conditions: Lab B; read-out: Human PDE2 Ki (nM) - Lab B

Row | Compound | Ki [nM]
2 | C[C@H]1C[C@]1(NC(=O)c1cc(=O)[nH]c(N(C)C)n1)c1ccc(C(F)(F)F)cc1 (single isomer, unassigned; enantiomer b) [Example 175, 2-(dimethylamino)-N-{2-methyl-1-[4-(trifluoromethyl)phenyl]cyclopropyl}-6-oxo-1,6-dihydropyrimidine-4-carboxamide (cis, enantiomer B)] | 0.92
3 | CN(C)c1nc(C(=O)NC2(c3ccc(C(F)(F)F)cc3F)CC2)cc(=O)[nH]1 [Example 49, 2-(dimethylamino)-N-{1-[2-fluoro-4-(trifluoromethyl)phenyl]cyclopropyl}-6-oxo-1,6-dihydropyrimidine-4-carboxamide] | 2.7
4 | CN(C)c1nc(C(=O)NC2(c3ccc(OC(C)(C)C)cc3)CC2)cc(=O)[nH]1 [Example 50, N-[1-(4-tert-butoxyphenyl)cyclopropyl]-2-(dimethylamino)-6-oxo-1,6-dihydropyrimidine-4-carboxamide] | 27
5 | CN(C)c1nc(C(=O)NC2(c3ccc(OC(F)F)cc3)CC2)cc(=O)[nH]1 [Example 52, N-{1-[4-(difluoromethoxy)phenyl]cyclopropyl}-2-(dimethylamino)-6-oxo-1,6-dihydropyrimidine-4-carboxamide] | 11
6 | CN(C)c1nc(C(=O)N[C@@H](c2ccc(OC(F)F)c(F)c2)C2CC2)cc(=O)[nH]1 [Example 53, N-{(R)-cyclopropyl[4-(difluoromethoxy)-3-fluorophenyl]methyl}-2-(dimethylamino)-6-oxo-1,6-dihydropyrimidine-4-carboxamide] | 4
7 | CC(C)[C@@H](NC(=O)c1cc(=O)[nH]c(N(C)C)n1)c1ccc(C(F)F)c(F)c1 [Example 65, N-{(1R)-1-[4-(difluoromethyl)-3-fluorophenyl]-2-methylpropyl}-2-(dimethylamino)-6-oxo-1,6-dihydropyrimidine-4-carboxamide] | 2.2
8 | CC[C@@H](NC(=O)c1cc(=O)[nH]c(N(C)C)n1)c1ccc(C(F)F)cc1 [Example 67, N-{(1R)-1-[4-(difluoromethyl)phenyl]propyl}-2-(dimethylamino)-6-oxo-1,6-dihydropyrimidine-4-carboxamide] | 6.9
9 | CC[C@@H](NC(=O)c1cc(=O)[nH]c(N(C)C)n1)c1ccc(C(F)F)c(F)c1 [Example 68, N-{(1R)-1-[4-(difluoromethyl)-3-fluorophenyl]propyl}-2-(dimethylamino)-6-oxo-1,6-dihydropyrimidine-4-carboxamide] | 12
10 | CN(C)c1nc(C(=O)NC(C)(C)c2ccc(C(F)F)c(F)c2)cc(=O)[nH]1 [Example 69, N-{1-[4-(difluoromethyl)-3-fluorophenyl]-1-methylethyl}-2-(dimethylamino)-6-oxo-1,6-dihydropyrimidine-4-carboxamide] | 10
11 | CN(C)c1nc(C(=O)NC2(c3ccc(C(F)F)c(F)c3)CC2)cc(=O)[nH]1 [Example 70, N-{1-[4-(difluoromethyl)-3-fluorophenyl]cyclopropyl}-2-(dimethylamino)-6-oxo-1,6-dihydropyrimidine-4-carboxamide] | 9.7
12 | C[C@@H](NC(=O)c1cc(=O)[nH]c(N(C)C)n1)c1ccc(C(C)(F)F)cc1 [Example 74, N-{(1R)-1-[4-(1,1-difluoroethyl)phenyl]ethyl}-2-(dimelhylamino)-6-oxo-1,6-dihydropyrimidine-4-carboxamide] | 3.9
13 | CC(C)[C@@H](NC(=O)c1cc(=O)[nH]c(N(C)C)n1)c1ccc(C(C)(F)F)cc1 [Example 75, N-{(1R)-1-[4-(1,1-difluoroethyl)phenyl]-2-methylpropyl}-2-(dimethylamino)-6-oxo-1,6-dihydropyrimidine-4-carboxamide] | 0.39
14 | CN(C)c1nc(C(=O)NC(c2ccccc2)c2ccc(C(F)(F)F)cc2)cc(=O)[nH]1 (centres unmarked) [Example 195, 2-(dimethylamino)-6-oxo-N-{phenyl[4-(trifluoromethyl)phenyl]methyl}-1,6-dihydropyrimidine-4-carboxamide] | 81
15 | CN(C)c1nc(C(=O)NC(C#N)c2ccc(C(F)(F)F)cc2)cc(=O)[nH]1 (centres unmarked) [Example 199, N-{cyano[4-(trifluoromethyl)phenyl]methyl}-2-(dimethylamino)-6-oxo-1,6-dihydropyrimidine-4-carboxamide] | 27
16 | CN(C)c1nc(C(=O)N[C@](C)(CO)c2ccc(C(F)(F)F)cc2Cl)cc(=O)[nH]1 [Example 200, N-{(1S)-1-[2-chloro-4-(trifluoromethyl)phenyl]-2-hydroxy-1-methylethyl}-2-(dimethylamino)-6-oxo-1,6-dihydropyrimidine-4-carboxamide] | 0.52
17 | CN(C)c1nc(C(=O)N[C@H]2CCCc3cc(C(F)(F)F)ccc32)cc(=O)[nH]1 [Example 204, 2-(dimethylamino)-6-oxo-N-[(1S)-6-(trifluoromethyl)-1,2,3,4-tetrahydronaphthalen-1-yl]-1,6-dihydropyrimidine-4-carboxamide] | 129
18 | COC(=O)C(NC(=O)c1cc(=O)[nH]c(N(C)C)n1)c1ccc(C(F)(F)F)cc1 (centres unmarked) [Example 205, methyl ({[2-(dimethylamino)-6-oxo-1,6-dihydropyrimidin-4-yl]carbonyl}amino)[4-(trifluoromethyl)phenyl]acetate] | 49

Now from value to compound:

Row | Ki [nM] | Compound
19 | 863 | CN(C)c1nc(C(=O)N[C@H]2COCc3cc(C(F)(F)F)ccc32)cc(=O)[nH]1 [Example 198, 2-(dimethylamino)-6-oxo-N-[(4R)-7-(trifluoromethyl)-3,4-dihydro-1H-isochromen-4-yl]-1,6-dihydropyrimidine-4-carboxamide]
20 | 749 | C[C@@H](NC(=O)c1cc(=O)[nH]c(N(C)C)n1)c1ccc(S(F)(F)(F)(F)F)cc1F [Example 116, (R)-2-(dimethylamino)-N-(1-(4-(pentafluorothio)-2-fluorophenyl)ethyl)-6-oxo-1,6-dihydropyrimidine-4-carboxamide]
21 | 329 | CC(C)[C@@H](NC(=O)c1cc(=O)[nH]c(O)n1)c1ccc(SC(F)(F)F)cc1 [Example 20, (R)-2-hydroxy-N-(2-methyl-1-(4-((trifluoromethyl)thio)phenyl)propyl)-6-oxo-1,6-dihydropyrimidine-4-carboxamide]
22 | 91 | CN(C)c1nc(C(=O)NC(c2ccncc2)c2ccc(C(F)(F)F)cc2)cc(=O)[nH]1 (centres unmarked) [Example 196, 2-(dimethylamino)-6-oxo-N-{pyridin-4-yl[4-(trifluoromethyl)phenyl]methyl}-1,6-dihydropyrimidine-4-carboxamide]
23 | 22 | CN(C)c1nc(C(=O)NC(CC#N)c2ccc(C(F)(F)F)cc2)cc(=O)[nH]1 (centres unmarked) [Example 203, N-{2-cyano-1-[4-(trifluoromethyl)phenyl]ethyl}-2-(dimethylamino)-6-oxo-1,6-dihydropyrimidine-4-carboxamide]
24 | 21 | CN(C)c1nc(C(=O)NC(C)(C)c2ccc(OC(F)(F)F)cc2F)cc(=O)[nH]1 [Example 81, 2-(dimethylamino)-N-{1-[2-fluoro-4-(trifluoromethoxy)phenyl]-1-methylethyl}-6-oxo-1,6-dihydropyrimidine-4-carboxamide]
25 | 18 | CN(C)c1nc(C(=O)NC2(c3ccc(OC(F)(F)F)cc3)CCC2)cc(=O)[nH]1 [Example 201, 2-(dimethylamino)-6-oxo-N-{1-[4-(trifluoromethoxy)phenyl]cyclobutyl}-1,6-dihydropyrimidine-4-carboxamide]
26 | 17 | CN(C)c1nc(C(=O)N[C@H](c2ccc(C(F)(F)F)cc2)C(C)(C)C)cc(=O)[nH]1 [Example 72, 2-(dimethylamino)-N-{(1S)-2,2-dimethyl-1-[4-(trifluoromethyl)phenyl]propyl}-6-oxo-1,6-dihydropyrimidine-4-carboxamide]
27 | 9.7 | CN(C)c1nc(C(=O)NC2(c3ccc(CC(F)(F)F)cc3)CC2)cc(=O)[nH]1 [Example 51, 2-(dimethylamino)-6-oxo-N-{1-[4-(2,2,2-trifluoroethyl)phenyl]cyclopropyl}-1,6-dihydropyrimidine-4-carboxamide]
28 | 5.4 | CN(C)c1nc(C(=O)NC2(c3ccc(C(F)(F)F)cc3)CCCC2)cc(=O)[nH]1 [Example 202, 2-(dimethylamino)-6-oxo-N-{1-[4-(trifluoromethyl)phenyl]cyclopentyl}-1,6-dihydro-pyrimidine-4-carboxamide]
29 | 3.6 | CC(=O)C(NC(=O)c1cc(=O)[nH]c(N(C)C)n1)c1ccc(C(F)(F)F)cc1 (centres unmarked) [Example 197, 2-(dimethylamino)-6-oxo-N-{2-oxo-1-[4-(trifluoromethyl)phenyl]propyl}-1,6-dihydropyrimidine-4-carboxamide]
